According to US8518889B2, “Method of treating cancer with antibodies against long-form leukotriene B4 receptor BLT2” (Korea University Research & Business Foundation, priority 2007, dated 2013):

How the values were obtained:
[1] = test system: eosinophil membranes; conditions: read-out: IC50, inhibits the binding of radiolabeled LTB4 to eosinophil membranes; cited from earlier work
[2] = test system: Rat2-HO6 cells; assay: metastasis survival analysis (Kaplan-Meier); type: in vivo, nude mice; conditions: 2.5 mg/kg intraperitoneal, 7 weeks
Method: All experimental animals used in this study were treated according to guidelines approved by the Institutional Animal Care and Use Committee of Korea University. Female nude mice (Charles River, Wilmington, Mass.), four-weeks-old at the time of injection, were used in the experimental metastasis assay. Rat-2, Rat2-HO6, and Rat2-BLT2 cells (5×10^5 cells) were prepared for injection from cultures in logarithmic growth at the time of harvest. The cells were briefly treated with 0.025% trypsin and 0.1% EDTA in Hanks' balanced salt solution and quickly removed from trypsin by centrifugation, resuspended in saline containing LTB4, and injected within 1 hr in 0.1 ml into the lateral tail vein with a 26-gauge needle. For inhibitor experiments, U75302 and LY255283 (0.25 mg/kg for BLT1 antagonist and 2.5 mg/kg for BLT2 antagonist) was injected intraperitoneally 3 and 5 days after injection of cells that were pretreated with inhibitors. The mice were maintained under aseptic barrier conditions until they were sacrificed at 21 days after cell injection (n=8, each group) to identify pulmonary metastasis or to investigate the mortality of mice at the end of the experiment (7 weeks) (n=8, each group). Metastasis survival was analyzed in Kaplan-Meyer plots.

[3] = test system: Panc-1 cells; assay: MTT assay, cell viability; type: cell-based, human; conditions: 2.5, 5 and 10 μM, 48 h
Method: (§1) To investigate the effect of the selective BLT2 antagonist LY255283 on pancreatic cancer cell proliferation and survival, cell viability was determined by MTT assay after Panc-1 and AsPC-1 cells were exposed to LY255283 for 48 hr.
(§2) Two human pancreatic cancer cell lines were used: Panc-1 and AsPC-1. Panc-1 cells were grown in DMEM, and AsPC-1 cells were grown in RPMl 1640.
(§3) Cells were plated in 96-well plates at a concentration of 10,000 cells/well. After incubation for 24 h, cells were serum-starved for 3 h, and then various concentrations (2.5 μM, 5 μM and 10 μM) of LY255283 were added. At the end of experiments, 25μ! of a 5 mg/ml MTT solution, diluted in PBS, was added into the 96-well plates. The plates were incubated at 37° C. in 5% CO2 atmosphere for 3 hr, allowing viable cells to reduce the yellow tetrazolium salt (MTT) into dark blue formazan crystals. At the end of the 3 h incubation, the MTT solution was removed and 100 μl of dimethyl sulfoxide was added to dissolve the formazan crystals. To ensure complete dissolution of the formazan crystals, the plates were vortexed gently at low speed for 10 min. The absorbance in individual wells was determined at 540 nm by a microplate reader.

[4] = test system: AsPC-1 cells; assay: MTT assay, cell viability; type: cell-based, human; conditions: 2.5, 5 and 10 μM, 48 h
Method: as §1, §2, §3

[5] = test system: MDA-MB-468 cells; assay: DAPI staining, apoptotic cells; type: cell-based, human; conditions: 2, 5, 10 μM, 48 h
Method: Cells were grown on sterile coverslips at a density of 7×10^5 cells/plate in 35-mm plate. After 24 h, cells incubated in media containing serum-free for 3 h. Then, cells were treated with U75302 (0.5, 1 μM), LY255283 (5, 10 μM) and incubated at 37° C. for 48 h. Then, cells were fixed with 70% cold-ethanol for 30 min at room temperature, and then washed once with PBS. DAPI (50 ng/ml) was added to the fixed cells, incubated for 20 min at room temperature, and washed with PBS. Cells were mounted and examined by fluorescence microscopy. Apoptotic cells were identified by the condensation and fragmentation of their nuclei. The percentage of apoptotic cells was calculated as the ratio of apoptotic cells to total cells counted. A minimum of 500 cells were counted for each treatment.

[6] = test system: PWR-1E cells; assay: cell cycle analysis / apoptosis measurement; type: cell-based; conditions: 5 μM, 48 hr
Method: After LNCaP cells and PWR-1E cells were treated with 5 μM LY255283 for 48 hr, the cells were fixed with 70% ethanol and stained with Pl. Cell cycle was analyzed using flow cytometry. The cells grown in 6-well cluster dishes were stimulated with 5 μM LY255283 for 48 h in serum free RPMI 1640. The cells which were collected by brief trypsinization were fixed for 12 hr with 70% ethanol at 4° C. The cells were resuspended in PBS containing RNase A (100 μg/ml) and incubated for 30 min at 37° C. The cells were stained with propidium iodide (50 μg/ml) (Sigma). Acquisition and analysis was performed by FACS using Cell Quest Alias software (BD Bioscience).

## CCc1cc(C(C)=O)c(O)cc1OCCCCCC(C)(C)c1nnn[nH]1 [LY255283, 1-[5-ethyl-2-hydroxy-4-[[6-methyl-6-(1H-tetrazol-5-yl)heptyl]oxy]phenyl]-ethanone]
[1]
  IC50: 260 nM
[2]
  survival of mouse injected with Ras-oncogene expressing transformed cells: extended the survival
[3]
  cell viability (MTT), Panc-1: diminished cell viability in dose-dependent manner
[4]
  cell viability (MTT), AsPC-3 as printed: diminished cell viability in dose-dependent manner
[5]
  apoptosis (DAPI staining): induces apoptosis via a dose-dependent manner
[6]
  apoptosis in prostate normal cells: but not prostate normal cells
